Measurements reported in US20100311714A1, “1H-IMIDAZO[4,5-c]QUINOLINONE COMPOUNDS” (priority 2009, published 2010).

How the values were obtained:
[1] = target: T1, mTOR (Homo sapiens, UniProt P42345); assay: Biochemical assay for m-TOR by TR-FRET; details: read-out: EPK_mTOR/IC50
T1 construct: purchased Invitrogen Corporation (Carlsbad/Calif., USA) PV4753
In short: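 mTOR (0.5 nM) phosphorylates GFP-4EBP1 (400 nM) with 8 μM ATP at rt in 50 mM HEPES pH 7.5, 10 mM MnCl2, 50 mM NaCl, 1 mM EGTA, 1 mM DTT; compounds 0.003–10 μM final. EDTA stop with Tb-anti-p4EBP1[pT46] antibody (0.5 nM); TR-FRET read after 15 min against no-enzyme and vehicle controls.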

[2] = test system: PKB Ser473 phosphorylation in Rat1-myr-HA-p110 alpha cells; assay: Reverse protein array, PKB Ser473 phosphorylation in Rat1-myr-HA-p110 alpha cells; format: cell-based; details: Rattus norvegicus, 0.5 h, 30 minutes compound incubation, read-out: p-PKB/IC50_alpha
[3] = Parallel Artificial Membrane Permeability Assay (PAMPA) at pH 6.8; format: physicochemical
In short: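 PAMPA permeability measured at pH 6.8 following the Wohnsland and Faller method; value reported as log Pe.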

T1 sequence (P42345 1360-2549 limits assumed): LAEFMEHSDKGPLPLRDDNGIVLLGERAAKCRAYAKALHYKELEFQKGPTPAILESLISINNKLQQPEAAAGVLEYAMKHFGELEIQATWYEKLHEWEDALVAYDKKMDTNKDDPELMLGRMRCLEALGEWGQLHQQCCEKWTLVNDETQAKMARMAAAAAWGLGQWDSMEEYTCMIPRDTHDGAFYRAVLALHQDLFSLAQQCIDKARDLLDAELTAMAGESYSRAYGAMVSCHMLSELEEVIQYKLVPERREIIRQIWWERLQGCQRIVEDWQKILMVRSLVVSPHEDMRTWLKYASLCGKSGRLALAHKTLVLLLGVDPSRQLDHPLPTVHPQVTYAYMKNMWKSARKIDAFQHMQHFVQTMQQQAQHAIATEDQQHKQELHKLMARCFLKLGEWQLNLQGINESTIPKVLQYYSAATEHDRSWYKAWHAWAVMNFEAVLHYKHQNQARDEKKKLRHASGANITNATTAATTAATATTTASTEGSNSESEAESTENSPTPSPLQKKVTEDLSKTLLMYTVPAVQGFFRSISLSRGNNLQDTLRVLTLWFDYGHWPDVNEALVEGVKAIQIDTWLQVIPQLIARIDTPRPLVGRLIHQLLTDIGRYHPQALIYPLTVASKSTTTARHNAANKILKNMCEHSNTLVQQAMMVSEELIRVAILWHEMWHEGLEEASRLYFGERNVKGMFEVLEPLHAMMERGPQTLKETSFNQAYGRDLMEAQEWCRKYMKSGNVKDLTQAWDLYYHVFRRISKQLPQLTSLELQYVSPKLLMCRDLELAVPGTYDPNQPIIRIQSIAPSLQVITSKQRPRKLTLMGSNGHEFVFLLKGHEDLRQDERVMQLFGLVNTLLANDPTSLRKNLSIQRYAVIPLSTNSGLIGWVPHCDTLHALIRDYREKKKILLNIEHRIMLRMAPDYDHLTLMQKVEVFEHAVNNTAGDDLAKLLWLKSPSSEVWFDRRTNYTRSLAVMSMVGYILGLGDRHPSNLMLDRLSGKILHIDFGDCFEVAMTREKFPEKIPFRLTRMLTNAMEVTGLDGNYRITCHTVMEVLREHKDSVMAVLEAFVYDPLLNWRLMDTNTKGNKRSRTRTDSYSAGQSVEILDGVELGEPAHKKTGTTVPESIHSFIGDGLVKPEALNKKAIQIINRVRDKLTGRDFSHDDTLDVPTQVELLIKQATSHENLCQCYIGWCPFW

SMILES: CNc1ncc(-c2ccc3ncc4c(c3c2)n(-c2ccc(OCCOC)nc2C)c(=O)n4C)cn1 [Example 13.5, 1-[6-(2-Methoxy-ethoxy)-2-methyl-pyridin-3-yl]-3-methyl-8-(2-methylamino-pyrimidin-5-yl)-1,3-dihydro-imidazo[4,5-c]quinolin-2-one]
- IC50 [1]: 39 nM
- IC50 [2]: 6.9 nM
- HT-Perm logPe pH6.8 [3]: −4.3

SMILES: CCNc1cc(-c2ccc3ncc4c(c3c2)n(-c2ccc(N(C)CCOC)nc2C)c(=O)n4C)cnc1C [Example 15.6, 8-(5-Ethylamino-6-methyl-pyridin-3-yl)-1-{6-[(2-methoxy-ethyl)-methyl-amino]-2-methyl-pyridin-3-yl}-3-methyl-1,3-dihydro-imidazo[4,5-c]quinolin-2-one]
- IC50 [1]: 6 nM
- IC50 [2]: 4.8 nM
- HT-Perm logPe pH6.8 [3]: −3.6

SMILES: Cc1ccc(-n2c(=O)n(C)c3cnc4ccc(-c5cncc(NC(C)C)c5)cc4c32)c(C)n1 [Example 14.8, 1-(2,6-Dimethyl-pyridin-3-yl)-8-(5-isopropylamino-pyridin-3-yl)-3-methyl-1,3-dihydro-imidazo[4,5-c]quinolin-2-one]
- IC50 [1]: 28 nM
- IC50 [2]: 9 nM
- HT-Perm logPe pH6.8 [3]: −4.1

SMILES: Cc1nc(N(C)C)ccc1-n1c(=O)n(C)c2cnc3ccc(-c4cncc(N)c4)cc3c21 [Example 19.5, 8-(5-Amino-pyridin-3-yl)-1-(6-dimethylamino-2-methyl-pyridin-3-yl)-3-methyl-1,3-dihydro-imidazo[4,5-c]quinolin-2-one]
- IC50 [1]: 9 nM
- IC50 [2]: 6.9 nM
- HT-Perm logPe pH6.8 [3]: −5.2

SMILES: COCc1ncc(-c2ccc3ncc4c(c3c2)n(-c2ccc(OC)nc2OC)c(=O)n4C)cc1OC [Example 8.12, 1-(2,6-Dimethoxy-pyridin-3-yl)-8-(5-methoxy-6-methoxymethyl-pyridin-3-yl)-3-methyl-1,3-dihydro-imidazo[4,5-c]quinolin-2-one]
- IC50 [1]: 17 nM
- IC50 [2]: 27.7 nM
- HT-Perm logPe pH6.8 [3]: −4

SMILES: COc1ccc(-n2c(=O)n(C)c3cnc4ccc(-c5cnc(N)c(C(F)(F)F)c5)cc4c32)c(OC)n1 [Example 8.1, 8-(6-Amino-5-trifluoromethyl-pyridin-3-yl)-1-(2,6-dimethoxy-pyridin-3-yl)-3-methyl-1,3-dihydro-imidazo[4,5-c]quinolin-2-one]
- IC50 [2]: 7.27 nM
- HT-perm/logPe pH6.8 [3]: −4.1

SMILES: COCCOc1ccc(-n2c(=O)n(C)c3cnc4ccc(-c5cncc(N6CCC6)c5)cc4c32)c(C)n1 [Example 22.2, 8-(5-Azetidin-1-yl-pyridin-3-yl)-1-[6-(2-methoxy-ethoxy)-2-methyl-pyridin-3-yl]-3-methyl-1,3-dihydro-imidazo[4,5-c]quinolin-2-one]
- IC50 [1]: 21 nM
- IC50 [2]: 6.4 nM

SMILES: COCCN(C)c1ccc(-n2c(=O)n(C)c3cnc4ccc(-c5cnc(CO)c(OC)c5)cc4c32)c(C)n1 [Example 15.9, 8-(6-Hydroxymethyl-5-methoxy-pyridin-3-yl)-1-{6-[(2-methoxy-ethyl)-methyl-amino]-2-methyl-pyridin-3-yl}-3-methyl-1,3-dihydro-imidazo[4,5-c]quinolin-2-one]
- IC50 [1]: 119 nM
- IC50 [2]: 10.8 nM

SMILES: CCNc1cc(-c2ccc3ncc4c(c3c2)n(-c2ccc(N3CC(F)(F)C3)nc2C)c(=O)n4C)cnc1CO [Example 24.3, 1-[6-(3,3-Difluoro-azetidin-1-yl)-2-methyl-pyridin-3-yl]-8-(5-ethylamino-6-hydroxymethyl-pyridin-3-yl)-3-methyl-1,3-dihydro-imidazo[4,5-c]quinolin-2-one]
- IC50 [1]: < 3 nM
- IC50 [2]: 5.9 nM

SMILES: COc1ccc(-c2ccc3ncc4c(c3c2)n(-c2ncccc2C)c(=O)n4C)cn1 [Example 3.13, 8-(6-Methoxy-pyridin-3-yl)-3-methyl-1-(3-methyl-pyridin-2-yl)-1,3-dihydro-imidazo[4,5-c]quinolin-2-one]
- IC50 [2]: 308 nM
- HT-perm/logPe pH6.8 [3]: −3.7

SMILES: Cc1nc(F)ccc1-n1c(=O)n(C)c2cnc3ccc(-c4cnc(N)c(CO)c4)cc3c21 [Example 7.17, 8-(6-Amino-5-hydroxymethyl-pyridin-3-yl)-1-(6-fluoro-2-methyl-pyridin-3-yl)-3-methyl-1,3-dihydro-imidazo[4,5-c]quinolin-2-one]
- IC50 [1]: 80 nM
- IC50 [2]: 31.1 nM

SMILES: CNc1ccc(-c2ccc3ncc4c(c3c2)n(-c2ccc(NC(=O)COC)nc2C)c(=O)n4C)cn1 [Example 20.4, 2-Methoxy-N-{6-methyl-5-[3-methyl-8-(6-methylamino-pyridin-3-yl)-2-oxo-2,3-dihydro-imidazo[4,5-c]quinolin-1-yl]-pyridin-2-yl}-acetamide]
- IC50 [1]: 11 nM
- IC50 [2]: 5.6 nM

SMILES: COCC(=O)Nc1ccc(-n2c(=O)n(C)c3cnc4ccc(-c5cncc(OC(C)C)c5)cc4c32)c(C)n1 [Example 20.5, N-{5-[8-(5-Isopropoxy-pyridin-3-yl)-3-methyl-2-oxo-2,3-dihydro-imidazo[4,5-c]quinolin-1-yl]-6-methyl-pyridin-2-yl}-2-methoxy-acetamide]
- IC50 [1]: 900 nM
- IC50 [2]: 90.2 nM

SMILES: CCOc1ccc(-c2ccc3ncc4c(c3c2)n(-c2ccc(N(C)C)nc2C)c(=O)n4C)cn1 [Example 19.3, 1-(6-Dimethylamino-2-methyl-pyridin-3-yl)-8-(6-ethoxy-pyridin-3-yl)-3-methyl-1,3-dihydro-imidazo[4,5-c]quinolin-2-one]
- IC50 [2]: 6.8 nM
- HT-Perm logPe pH6.8 [3]: −4.4

SMILES: COCCOc1ccc(-n2c(=O)n(C)c3cnc4ccc(-c5cnc(COC)c(OC)c5)cc4c32)c(C)n1 [Example 22.3, 1-[6-(2-Methoxy-ethoxy)-2-methyl-pyridin-3-yl]-8-(5-methoxy-6-methoxymethyl-pyridin-3-yl)-3-methyl-1,3-dihydro-imidazo[4,5-c]quinolin-2-one]
- IC50 [1]: 140 nM
- IC50 [2]: 24.2 nM

SMILES: CCOc1ccc(-c2ccc3ncc4c(c3c2)n(-c2ccc(NC(=O)COC)nc2C)c(=O)n4C)cn1 [Example 20.2, N-{5-[8-(6-Ethoxy-pyridin-3-yl)-3-methyl-2-oxo-2,3-dihydro-imidazo[4,5-c]quinolin-1-yl]-6-methyl-pyridin-2-yl}-2-methoxy-acetamide]
- IC50 [1]: 154 nM
- IC50 [2]: 50 nM

SMILES: CNc1ncc(-c2ccc3ncc4c(c3c2)n(-c2ccc(N(C)C)nc2C)c(=O)n4C)cn1 [Example 19.1, 1-(6-Dimethylamino-2-methyl-pyridin-3-yl)-3-methyl-8-(2-methylamino-pyrimidin-5-yl)-1,3-dihydro-imidazo[4,5-c]quinolin-2-one]
- IC50 [1]: 3 nM
- HT-Perm logPe pH6.8 [3]: −3.9

SMILES: Cc1nc(C(C)(C)O)ccc1-n1c(=O)n(C)c2cnc3ccc(-c4cncc(OC(C)C)c4)cc3c21 [Example 31.9, 1-[6-(1-Hydroxy-1-methyl-ethyl)-2-methyl-pyridin-3-yl]-8-(5-isopropoxy-pyridin-3-yl)-3-methyl-1,3-dihydro-imidazo[4,5-c]quinolin-2-one]
- IC50 [1]: 139 nM
- HT-Perm logPe pH6.8 [3]: −3.8

SMILES: CNc1ncc(-c2ccc3ncc4c(c3c2)n(-c2ccc(NC(=O)COC)nc2C)c(=O)n4C)cn1 [Example 20.3, 2-Methoxy-N-{6-methyl-5-[3-methyl-8-(2-methylamino-pyrimidin-5-yl)-2-oxo-2,3-dihydro-imidazo[4,5-c]quinolin-1-yl]-pyridin-2-yl}-acetamide]
- IC50 [1]: 59 nM
- IC50 [2]: 6.6 nM
